pIC50: −log10 of the molar value.
Target: T1, Human MGAT-2 (Homo sapiens, UniProt Q3SYC2)
T1 construct: made in house; host or cells: Sf9 cells (membrane preparation)
Assay: MGAT LCMS Assay
Type: biochemical
Details: human MGAT2 membranes expressed in Sf9 cells; 100 μM 2-oleoylglycerol, 15 μM oleoyl-coenzyme A; read-out: h-MGAT LCMS IC50
In short: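 Robotic enzyme reaction shaken 10 min, quenched with ice-cold methanol containing 1 μg/mL 1,2-distearoyl-rac-glycerol internal standard. Diolein product measured by LC/MS (C8 column, 65° C, APCI(+) triple quad). IC50 derived from diolein/internal standard peak area ratio.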

T1 sequence (Q3SYC2 whole entry): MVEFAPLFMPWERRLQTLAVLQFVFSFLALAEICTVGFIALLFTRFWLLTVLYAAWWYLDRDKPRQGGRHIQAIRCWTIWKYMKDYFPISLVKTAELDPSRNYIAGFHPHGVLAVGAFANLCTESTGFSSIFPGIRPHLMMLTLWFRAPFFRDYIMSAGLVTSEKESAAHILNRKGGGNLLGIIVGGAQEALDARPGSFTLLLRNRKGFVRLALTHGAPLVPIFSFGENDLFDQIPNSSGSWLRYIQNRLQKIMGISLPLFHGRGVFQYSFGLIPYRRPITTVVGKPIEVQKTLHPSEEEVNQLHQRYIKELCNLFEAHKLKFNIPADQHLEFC

Compound | pIC50
CS(=O)(=O)NC(=O)c1c(-c2ccn(CC3CC3)n2)cc(-c2ccc(OCCCCCC(F)(F)F)cc2)[nH]c1=O [Example 105, 4-(1-(Cyclopropylmethyl)-1H-pyrazol-3-yl)-N-(methylsulfonyl)-2-oxo-6-(4-((6,6,6-trifluorohexyl)oxy)phenyl)-1,2-dihydropyridine-3-carboxamide] | 7.64
O=c1[nH]c(-c2ccc(OCCCCCC(F)(F)F)cc2)cc(-c2ccn(C3CC3)n2)c1-c1nnn[nH]1 [Example 107] | 7.00
O=c1[nH]c(-c2ccc(OCCCCCC(F)(F)F)cc2)cc(-c2ccc(OC(F)F)cc2)c1-c1nnn[nH]1 [Example 108, 4-(4-(Difluoromethoxy)phenyl)-3-(1H-tetrazol-5-yl)-6-(4-((6,6-trifluorohexyl)oxy)phenyl)pyridin-2(1H)-one] | 7.85
CS(=O)(=O)NC(=O)c1c(-c2ccn(CC3CC3)n2)c(F)c(-c2ccc(OCCCC(F)(F)F)cc2)[nH]c1=O [Example 109, 4-(1-(Cyclopropylmethyl)-1H-pyrazol-3-yl)-5-fluoro-N-(methylsulfonyl)-2-oxo-6-(4-(4,4,4-trifluorobutoxy)phenyl)-1,2-dihydropyridine-3-carboxamide] | 6.89
O=c1[nH]c(-c2ccc(OCCCCCC(F)(F)F)cc2)cc(-c2ccn(CC3CC3)n2)c1-c1nnn[nH]1 [Example 110, 4-(1-(Cyclopropylmethyl)-1H-pyrazol-3-yl)-3-(1H-tetrazol-5-yl)-6-(4-((6,6,6-trifluorohexyl)oxy)phenyl)pyridin-2(1H)-one] | 7.37
Cc1ccc(-c2cc(-c3ccc(OCCCC(F)(F)F)cc3C(F)(F)F)[nH]c(=O)c2C(=O)Nc2ccc(OC(F)(F)F)cc2)cc1 [Example 111, 2-Oxo-4-(p-tolyl)-6-(4-(4,4,4-trifluorobutoxy)-2-(trifluoromethyl)phenyl)-N-(4-(trifluorormethoxy)phenyl)-1,2-dihydropyridine-3-carboxamide] | 8.70
O=c1[nH]c(-c2ccc(OCCCC(F)(F)F)cc2F)cc(-c2ccc(OC(F)F)cc2)c1-c1nn[nH]n1 [Example 113, 4-(4-(Difluoromethoxy)phenyl)-6-(2-fluoro-4-(4,4,4-trifluorobutoxy)phenyl)-3-(2H-tetrazol-5-yl)pyridin-2(1H)-one] | 8.15
CCOc1ccc(NC(=O)c2c(-c3ccc(C)cc3)cc(-c3ccc(OCCCC(F)(F)F)cc3F)[nH]c2=O)cc1 [Example 114, N-(4-Ethoxyphenyl)-6-(2-fluoro-4-(4,4,4-trifluorobutoxy)phenyl)-2-oxo-4-(p-tolyl)-1,2-dihydropyridine-3-carboxamide] | 7.85
CCc1ccc(-c2cc(-c3ccc(OCCCC(F)(F)F)cc3F)[nH]c(=O)c2C(=O)Nc2ccc(OC(F)(F)F)cc2)s1 [Example 116, 4-(5-Ethylthiophen-2-yl)-6-(2-fluoro-4-(4,4,4-trifluorobutoxy)phenyl)-2-oxo-N-(4-(trifluoromethoxy)phenyl)-1,2-dihydropyridine-3-carboxamide] | 7.77
Cc1ccc(-c2c(F)c(-c3ccc(OCCCCCC(F)(F)F)cc3)[nH]c(=O)c2C(=O)NS(C)(=O)=O)cc1 [Example 117, 5-Fluoro-N-(methylsulfonyl)-2-oxo-4-(p-tolyl)-6-(4-((6,6,6-trifluorohexyl)oxy)phenyl)-1,2-dihydropyridine-3-carboxamide] | 7.54
O=C(Nc1ccc(OC(F)(F)F)cc1)c1c(-c2ccn(CC3CC3)n2)cc(-c2ccc(OCCCCCC(F)(F)F)cc2F)[nH]c1=O [Example 118, 4-(1-(Cyclopropylmethyl)-1H-pyrazol-3-yl)-6-(2-fluoro-4-((6,6,6-trifluorohexyl)oxy)phenyl)-2-oxo-N-(4-(trifluoromethoxy)phenyl)-1,2-dihydropyridine-3-carboxamide] | 7.72
CCOc1ccc(NC(=O)c2c(-c3ccn(CC)n3)cc(-c3ccc(OCCCC(F)(F)F)cc3F)[nH]c2=O)cc1 [Example 119, N-(4-Ethoxyphenyl)-4-(1-ethyl-1H-pyrazol-3-yl)-6-(2-fluoro-4-(4,4,4-trifluorobutoxy)phenyl)-2-oxo-1,2-dihydropyridine-3-carboxamide] | 8.00
CCn1ccc(-c2cc(-c3ccc(OCCCC(F)(F)F)cc3F)[nH]c(=O)c2C(=O)Nc2ccc(OC(F)(F)F)cc2)n1 [Example 120, 4-(1-Ethyl-1H-pyrazol-3-yl)-6-(2-fluoro-4-(4,4,4-trifluorobutoxy)phenyl)-2-oxo-N-(4-(trifluoromethoxy)phenyl)-1,2-dihydropyridine-3-carboxamide] | 7.35
CCc1ccc(-c2cc(-c3ccc(OCCCC(F)(F)F)cc3)[nH]c(=O)c2C(=O)NS(=O)(=O)C2CC2)s1 [Example 121] | 7.96
Cc1ccc(-c2cc(-c3ccc(OCCCC(F)(F)F)cc3F)[nH]c(=O)c2C(=O)Nc2ccc(OC(F)(F)F)cc2)cc1 [Example 122, 6-(2-Fluoro-4-(4,4,4-trifluorobutoxy)phenyl)-2-oxo-4-(p-tolyl)-N-(4-(trifluorormethoxy)phenyl)-1,2-dihydropyridine-3-carboxamide] | 7.57
O=c1[nH]c(-c2ccc(OCCCCCC(F)(F)F)cc2F)cc(-c2ccc(C3CC3)cc2)c1-c1nnn[nH]1 [Example 123, 4-(4-Cyclopropylphenyl)-6-(2-fluoro-4-((6,6,6-trifluorohexyl)oxy)phenyl)-3-(1H-tetrazol-5-yl)pyridin-2(1H)-one] | 7.96
CCOc1cc(OCCCCCC(F)(F)F)ccc1-c1cc(-c2ccc(C3CC3)cc2)c(-c2nnn[nH]2)c(=O)[nH]1 [Example 124, 4-(4-Cyclopropylphenyl)-6-(2-ethoxy-4-((6,6,6-trifIuorohexyl)oxy)phenyl)-3-(1H-tetrazol-5-yl)pyridin-2(1H)-one] | 6.89
O=c1[nH]c(-c2ccc(OCCCC(F)(F)F)cc2F)cc(-c2ncc(C3CC3)s2)c1-c1nnn[nH]1 [Example 125, 4-(5-Cyclopropylthiazol-2-yl)-6-(2-fluoro-4-(4,4,4-trifluorobutoxy)phenyl)-3-(1H-tetrazol-5-yl)pyridin-2(1H)-one] | 8.70
CCOc1cc(OCCCC(F)(F)F)ccc1-c1cc(-c2ccc(C)cc2)c(C(=O)NS(=O)(=O)C2CC2)c(=O)[nH]1 [Example 126, N-(Cyclopropylsulfonyl)-6-(2-ethoxy-4-(4,4,4-trifluorobutoxy)phenyl)-2-oxo-4-(p-tolyl)-1,2-dihydropyridine-3-carboxamide] | 7.37
CCc1ccc(-c2c(Cl)c(-c3ccc(OCCCC(F)(F)F)cc3)[nH]c(=O)c2-c2nnn[nH]2)s1 [Example 128, 5-Chloro-4-(5-ethylthiophen-2-yl)-3-(1H-tetrazol-5-yl)-6-(4-(4,4,4-trifluorobutoxy)phenyl)pyridin-2(1H)-one] | 7.08
CCn1ccc(-c2cc(-c3ccc(OCCCC(F)(F)F)cc3C(F)(F)F)[nH]c(=O)c2-c2nn[nH]n2)n1 [Example 129, 4-(1-Ethyl-1H-pyrazol-3-yl)-3-(2H-tetrazol-5-yl)-6-(4-(4,4,4-trifluorobutoxy)-2-(trifluoromethyl)phenyl)pyridin-2(1H)-one] | 7.29
O=c1[nH]c(-c2ccc(OCCCCCC(F)(F)F)cc2F)cc(-c2ccc(C(F)F)cc2)c1-c1nnn[nH]1 [Example 130, 4-(4-(Difluoromethyl)phenyl)-6-(2-fluoro-4-((6,6,6-trifluorohexyl)oxy)phenyl)-3-(1H-tetrazol-5-yl)pyridin-2(1H)-one] | 8.40
Cc1ccc(-c2cc(-c3ccc(OCCCCCC(F)(F)F)cc3Cl)[nH]c(=O)c2C(=O)Nc2ccc(OC(F)(F)F)cc2)cc1 [Example 131, 6-(2-Chloro-4-((6,6,6-trifluorohexyl)oxy)phenyl)-2-oxo-4-(p-tolyl)-Ar-(4-(trifluoromethoxy)phenyl)-1,2-dihydropyridine-3-carboxamide] | 8.15
Cc1ccc(-c2cc(-c3ccc(OCCCC(F)(F)F)cc3Cl)[nH]c(=O)c2C(=O)Nc2ccc(OC(F)(F)F)cc2)cc1 [Example 132, 6-(2-Chloro-4-(4,4,4-trifluorobutoxy)phenyl)-2-oxo-4-(p-tolyl)-N-(4-(trifluoromethoxy)phenyl)-1,2-dihydropyridine-carboxamide] | 7.85
CCc1cnc(-c2cc(-c3ccc(OCCCC(F)(F)F)cc3F)[nH]c(=O)c2-c2nnn[nH]2)s1 [Example 133, 4-(5-Ethylthiazol-2-yl)-6-(2-fluoro-4-(4,4,4-trifluorobutoxy)phenyl)-3-(1H-tetrazol-5-yl)pyridin-2(1H)-one] | 8.70
Cc1ccc(-c2cc(-c3ccc(OCCCCCC(F)(F)F)cc3C(F)(F)F)[nH]c(=O)c2-c2nnn[nH]2)cc1 [Example 134, 3-(2H-Tetrazol-5-yl)-4-(p-tolyl)-6-(4-((6,6,6-trifluorohexyl)oxy)-2-(trifluoromethyl)phenyl)pyridin-2(1H)-one] | 8.52
CCc1ccc(-c2cc(-c3ccc(OCCCC(F)(F)F)cc3F)[nH]c(=O)c2C(=O)NS(C)(=O)=O)s1 [Example 135, 4-(5-Ethylthiophen-2-yl)-6-(2-fluoro-4-(4,4,4-trifluorobutoxy)phenyl)-N-(methylsulfonyl)-2-oxo-1,2-dihydropyridine-3-carboxamide] | 8.30
CCOc1cc(OCCCC(F)(F)F)ccc1-c1cc(-c2ncc(C3CC3)s2)c(-c2nnn[nH]2)c(=O)[nH]1 [Example 137, 4-(5-Cyclopropylthiazol-2-yl)-6-(2-ethoxy-4-(4,4,4-trifluorobutoxy)phenyl)-3-(1H-tetrazol-5-yl)pyridin-2(1H)-one] | 8.30
O=C(NS(=O)(=O)C1CC1)c1c(-c2ncc(C3CC3)s2)cc(-c2ccc(OCCCC(F)(F)F)cc2F)[nH]c1=O [Example 138, N-(Cyclopropylsulfonyl)-4-(5-cyclopropylthiazol-2-yl)-6-(2-fluoro-4-(4,4,4-trifluorobutoxy)phenyl)-2-oxo-1,2-dihydropyridine-3-carboxamide] | 7.89
CCc1ccc(-c2cc(-c3ccc(OCCCC(F)(F)F)cc3Cl)[nH]c(=O)c2-c2nnn[nH]2)s1 [Example 139, 6-(2-Chloro-4-(4,4,4-trifluorobutoxy)phenyl)-4-(5-ethylthiophen-2-yl)-3-(1H-tetrazol-5-yl)pyridin-2(1H)-one] | 8.40

From patent US9974778B2, “Substituted pyridinones as MGAT2 inhibitors” (BRISTOL-MYERS SQUIBB COMPANY, priority 2014, dated 2018)
